Columns and labels:
[1] = In vivo pharmacokinetic analysis, single dose, ICR mice; conditions: mouse, male, plasma; for AUC(0-inf) / AUC(0-t) / Cmax / Tmax / half-life: single dose; for bioavailability: PO 10 mg/kg vs IV 2 mg/kg, read-out: F % (bioavailability)
Experimental: This is a single-dose study in ICR mice (male, n=9/administration) with intravenous and oral administration. Compound concentrations in plasma were measured and calculated for pharmacokinetic (PK) analysis via WinNonLin 6.4.

Ba/F3-TEL-SYK cells = biological target: T1, Ba/F3-TEL-SYK cells (Homo sapiens, UniProt P43405); assay: Ba/F3-TEL-SYK cell-based assay (CellTiter-Glo proliferation); conditions: 72 hr, read-out: BaF3 Cell assay IC50
T1 construct: fused on or other part: N-terminal part of TEL (ETV6) with its oligomerising PNT/SAM domain, fused before the SYK part that carries the kinase domain; P41212 (Transcription factor ETV6)
Experimental: CellTiter-Glo® Luminescent Cell Viability Assay was used to determine the number of viable cells in culture based on quantitation of the ATP present, as an indicator of metabolically active cells. The assay was performed in the following steps: First, the testing compounds were dissolved in DMSO to make a stock solution. The stocks (10 mM) were then diluted to varying concentrations: […], 0.305 and 0.102 μM. An aliquot of 0.2 μl of diluted compounds were added to the 384 well assay plate. Second, added 40 μl of cell suspension with 800 Ba/F3-TEL-SYK cells into each well and incubated the plate at 37° C., 5% CO2 for 72 hr. Then, added 20 μl Cell Titer-Glo Reagent into each well of the cell culture plate. Mixed the contents for 2 min on an orbital shaker to lyse cells, and rest the plate at room temperature for 30 min. Finally, luminescence values were obtained using an Envision 2104 plate reader (PerkinElmer) and calculated the average data and Standard Deviation (SD) of DMSO and Reference (GS-9973, 1 μM) as high control and low control. To determine the IC50 value, fit the data using non-linear regression equation.

SYK kinase = SYK kinase (Homo sapiens, UniProt P43405); assay: SYK kinase assay (HTRF KinEASE-TK); assay type: biochemical; conditions: class symbols, read-out: Syk inhibition IC50
Experimental: A homogeneous time-resolved fluorescence (HTRF) assay was performed to assess the potential inhibitory effect of compounds on SYK kinase. The HTRF KinEASE-TK kit (Cisbio) was used. During the step, kinase will phosphorylate the substrate, and the resulting fluorescence signal is proportional to the phosphorylation level. The assay was performed in the following steps: First, the testing compounds were diluted 1:3 in succession in DMSO. The 1× kinase buffer contained 1 volume of 5× enzymatic buffer with 4 volumes of distilled water, 5 mM MgCl2, 1 mM MnCl2, and 1 mM DTT. The assays were assembled in 384 well plates (784075, Greiner) where 10 nl of compound solutions were added into each well, and the plates were centrifuged at 1000 g for 1 min. Then, 5 μl of 2×SYK in 1× kinase buffer were added to each well. The plates were centrifuged at 1000 g for 30 s and then incubated at room temperature for 10 min. The reaction was initiated by adding […] of premixed 2×TK-substrate-biotin and ATP mixture in 1× kinase buffer to the assay plates. The plates were centrifuged at 1000 g for 30 s and incubated at room temperature for 30 min. Phosphorylation was detected by adding 5 μl of 4×Sa-XL 665 in HTRF detection buffer into each well of the assay plates. The plates were centrifuged plates at 1000 g for 30 sec, and then incubated at room temperature for 1 h. Finally, the plates were read on an Envision 2104 plate reader (PerkinElmer) and the fluorescence signal was measured at 615 nm (Cryptate) and 665 nm (XL665).
A ratio (665/615 nm) was calculated for each well. The inhibition ratio was calculated as follow: […]
IC50 was calculated by fitting % Inhibition values and log of compound concentrations to nonlinear regression (dose response−variable slope) with GraphPad 6.0.

SMILES | AUC(0-inf) ([1]; IV Administration (2 mg/kg)) [ng·h/mL] | AUC(0-t) ([1]; IV Administration (2 mg/kg)) [ng·h/mL] | Cmax ([1]; IV Administration (2 mg/kg)) [ng/mL] | Tmax ([1]; IV Administration (2 mg/kg)) [min] | half-life ([1]; IV Administration (2 mg/kg)) [min] | AUC(0-inf) ([1]; PO Administration (10 mg/kg)) [ng·h/mL] | AUC(0-t) ([1]; PO Administration (10 mg/kg)) [ng·h/mL] | Cmax ([1]; PO Administration (10 mg/kg)) [ng/mL] | Tmax ([1]; PO Administration (10 mg/kg)) [min] | half-life ([1]; PO Administration (10 mg/kg)) [min] | bioavailability [1] [%] | GI50 (Ba/F3-TEL-SYK cells) [nM] | IC50 (SYK kinase) [nM]
c1nc2c(Nc3ccc(N4CCN(C5COC5)CC4)cc3)nc(-c3ccc4cc[nH]c4c3)cn2n1 [I57, 6-(1H-indol-6-yl)-N-(4-(4-(oxetan-3-yl)piperazin-1-yl)phenyl)-[1,2,4]triazolo[1,5-a]pyrazin-8-amine] | 4670 | 4670 | 7360 | 4.8 | 43.2 | 14500 | 14500 | 14400 | 15 | 196 | 62 | ≤ 50 | ≤ 50
c1nc2c(Nc3ccc(N4CCOCC4)cc3)nc(-c3ccc4cc[nH]c4c3)cn2n1 [I10, 6-(1H-indol-6-yl)-N-(4-morpholinophenyl)-[1,2,4]triazolo[1,5-a]pyrazin-8-amine] | 11400 | 11200 | 8810 | 4.8 | 99 | 28500 | 28500 | 2160 | 240 | 100 | 50.8 | 50 to 500 | ≤ 50
COc1cc(Nc2nc(-c3ccc4cn[nH]c4c3)cn3ncnc23)ccc1N1CCOCC1 [I1, 6-(1H-indazol-6-yl)-N-(3-methoxy-4-morpholinophenyl)-[1,2,4]triazolo[1,5-a]pyrazin-8-amine] | 983 | 980 | 2520 | 4.8 | 15 | 448 | 381 | 88.8 | 30 | 54 | 7.77 | ≤ 50 | ≤ 50
COc1cc(Nc2nc(-c3ccc4cc[nH]c4c3)cn3ncnc23)ccc1N1CCOCC1 [I2, 6-(1H-indol-6-yl)-N-(3-methoxy-4-morpholinophenyl)-[1,2,4]triazolo[1,5-a]pyrazin-8-amine] | 1010 | 1010 | 1870 | 4.8 | 34.2 | 2260 | 1960 | 696 | 15 | 168 | 38.9 | ≤ 50 | ≤ 50
COc1cc(Nc2nc(-c3ccc4cn[nH]c4c3)cn3ncnc23)ccc1N1CCC(C)(O)CC1 [I22, 1-(4-((6-(1H-indazol-6-yl)-[1,2,4]triazolo[1,5-a]pyrazin-8-yl)amino)-2-methoxyphenyl)-4-methylpiperidin-4-ol] | 429 | 428 | 1320 | 4.8 | 12.6 | 125 | 115 | 108 | 15 | 28.8 | 5.38 | ≤ 50 | ≤ 50
COc1cc(Nc2nc(-c3ccc4cn[nH]c4c3)cn3ncnc23)ccc1N1CCN(C2COC2)CC1 [I54, 6-(1H-indazol-6-yl)-N-(3-methoxy-4-(4-(oxetan-3-yl)piperazin-1-yl)phenyl)-[1,2,4]triazolo[1,5-a]pyrazin-8-amine] | 500 | 499 | 1640 | 4.8 | 39 | 151 | 145 | 268 | 15 | 46.8 | 5.81 | ≤ 50 | ≤ 50
COc1cc(Nc2nc(-c3ccc4c(c3)N=CC4)cn3ncnc23)ccc1N1CC2(COC2)C1 [I62, 6-(3H-indol-6-yl)-N-(3-methoxy-4-(2-oxa-6-azaspiro[3.3]heptan-6-yl)phenyl)-[1,2,4]triazolo[1,5-a]pyrazin-8-amine] |  |  |  |  |  |  |  |  |  |  |  | 50 to 500 | ≤ 50
CCOc1cc(Nc2nc(-c3ccc4cc[nH]c4c3)cn3ncnc23)ccc1N1CC2CC1CN2C1COC1 (stereo not drawn) [I79, N-(3-ethoxy-4-(5-(oxetan-3-yl)-2,5-diazabicyclo[2.2.1]heptan-2-yl)phenyl)-6-(1H-indol-6-yl)-[1,2,4]triazolo[1,5-a]pyrazin-8-amine] |  |  |  |  |  |  |  |  |  |  |  | 50 to 500 | ≤ 50
COc1cc(Nc2nc(-c3ccc4cc[nH]c4c3)cn3ncnc23)ccc1N1CC2CC1CN2C1COC1 (stereo not drawn) [I76, 6-(1H-indol-6-yl)-N-(3-methoxy-4-(5-(oxetan-3-yl)-2,5-diazabicyclo[2.2.1]heptan-2-yl)phenyl)-[1,2,4]triazolo[1,5-a]pyrazin-8-amine] |  |  |  |  |  |  |  |  |  |  |  | 50 to 500 | ≤ 50
COc1cc(Nc2nc(-c3ccc4c(c3)OCC(=O)N4)cn3ncnc23)ccc1N1CCOCC1 [I28, 7-(8-((3-methoxy-4-morpholinophenyl)amino)-[1,2,4]triazolo[1,5-a]pyrazin-6-yl)-2H-benzo[b][1,4]oxazin-3(4H)-one] |  |  |  |  |  |  |  |  |  |  |  | 50 to 500 | ≤ 50
COc1cc(Nc2nc(-c3ccc4cc[nH]c4c3)cn3ncnc23)ccc1N1CCN(C2COC2)CC1 [I58, 6-(1H-indol-6-yl)-N-(3-methoxy-4-(4-(oxetan-3-yl)piperazin-1-yl)phenyl)-[1,2,4]triazolo[1,5-a]pyrazin-8-amine] | 1680 | 1680 | 5110 | 4.8 | 42.6 | 902 | 895 | 2570 | 15 | 89.4 | 10.7 | ≤ 50 | ≤ 50
O=S1(=O)CCN(c2ccc(Nc3nc(-c4ccc5cn[nH]c5c4)cn4ncnc34)cc2)CC1 [I25, 4-(4-((6-(1H-indazol-6-yl)-[1,2,4]triazolo[1,5-a]pyrazin-8-yl)amino)phenyl)thiomorpholine 1,1-dioxide] |  |  |  |  |  |  |  |  |  |  |  | 50 to 500 | ≤ 50
FC(F)Oc1cc(Nc2nc(-c3ccc4cc[nH]c4c3)cn3ncnc23)ccc1N1CC2CC1CN2C1COC1 (stereo not drawn) [I78, N-(3-(difluoromethoxy)-4-(5-(oxetan-3-yl)-2,5-diazabicyclo[2.2.1]heptan-2-yl)phenyl)-6-(1H-indol-6-yl)-[1,2,4]triazolo[1,5-a]pyrazin-8-amine] |  |  |  |  |  |  |  |  |  |  |  | 500 to 5000 | ≤ 50
COc1cc(Nc2nc(-c3ccc4c(c3)OC(C)(C)C(=O)N4)cn3ncnc23)ccc1N1CCOCC1 [I26, 7-(8-((3-methoxy-4-morpholinophenyl)amino)-[1,2,4]triazolo[1,5-a]pyrazin-6-yl)-2,2-dimethyl-2H-benzo[b][1,4]oxazin-3(4H)-one] |  |  |  |  |  |  |  |  |  |  |  | 50 to 500 | 50 to 500
COCCN1CCN(c2ccc(Nc3nc(-c4ccc5cn[nH]c5c4)cn4ncnc34)cc2OC)CC1 [I18, 6-(1H-indazol-6-yl)-N-(3-methoxy-4-(4-(2-methoxyethyl)piperazin-1-yl)phenyl)-[1,2,4]triazolo[1,5-a]pyrazin-8-amine] |  |  |  |  |  |  |  |  |  |  |  | ≤ 50 | ≤ 50
COc1cc(Nc2nc(-c3cncc(N)n3)cn3ncnc23)ccc1N1CCN(C2COC2)CC1 [I56, 6-(6-aminopyrazin-2-yl)-N-(3-methoxy-4-(4-(oxetan-3-yl)piperazin-1-yl)phenyl)-[1,2,4]triazolo[1,5-a]pyrazin-8-amine] |  |  |  |  |  |  |  |  |  |  |  | 500 to 5000 | 50 to 500
c1nc2c(Nc3ccc(N4CC5CC4CN5C4COC4)cc3)nc(-c3ccc4cc[nH]c4c3)cn2n1 (stereo not drawn) [I82, 6-(1H-indol-6-yl)-N-(4-(5-(oxetan-3-yl)-2,5-diazabicyclo[2.2.1]heptan-2-yl)phenyl)-[1,2,4]triazolo[1,5-a]pyrazin-8-amine] |  |  |  |  |  |  |  |  |  |  |  | 500 to 5000 | ≤ 50

Source: patent publication US12577248B2, “Substituted [1,2,4]triazolo[1,5-a]pyrazines as spleen tyrosine kinase inhibitors” (NANJING RUIJIE PHARMA CO., LTD., priority 2020, dated 2026)
